Values quoted from earlier work as cited in patent publication US20080045610A1, “Methods for regulating neurotransmitter systems by inducing counteradaptations” (priority 2004, published 2008).

Key:
opiate receptor = conditions: compared with native morphine compound
[1] = in vivo
[2] = parent compound itself

CN1CC[C@]23c4c5ccc(O)c4O[C@H]2CC=C[C@H]3[C@H]1C5 [6-desoxymorphine]
activity relative to native morphine (opiate receptor): 10 times

CC(=O)Oc1ccc2c3c1O[C@H]1[C@@H](OC(C)=O)C=C[C@H]4[C@@H](C2)N(C)CC[C@@]341 [diacetylmorphine]
oral bioavailability: ~67%

C=C1CC[C@@]2(O)[C@H]3Cc4ccc(O)c5c4[C@@]2(CCN3CC2CC2)[C@H]1O5 [nalmefene]
liver toxicity [1]: no dose dependent liver toxicity | half-life [2]: 8 h
